# From patent US20090082388A1 (ACADIA PHARMACEUTICALS INC., priority 2007, published 2009)
# Key:
# [1] = biological target: dopamine receptors including the D2 and D4 receptors; test: Affinity to dopamine receptors; assay type: binding
# [2] = Clearance from in vitro human microsomes; assay type: in vitro ADME; details: read-out: clearance rate from in vitro human microsomes
# [3] = tested on: 31 of the 36 human monoaminergic receptors; test: Functional activity at human monoaminergic receptors; details: 5-HT1A, 1B, 1D, 1E, 1F, 2B, 3, 4, 6A, 7A; adrenergic α1A, α1B, α1D, α2A, α2B, β2; dopamine D1-D4; histamine H1-H3
# [4] = tested on: mice with a deletion of the M1 muscarinic receptor (M1KO) or wild-type (WT) controls; test: Hyperactivity study with M1 knock-out mice; assay type: in vivo
# Description: A linear regression analysis was then conducted to determine the theoretical dose that would produce a 50% reduction of activity (ED50) and 95% confidence interval. Mice had no prior exposure to the chambers and each dose combination was tested in separate groups of mice.
# [5] = tested on: mice receiving ICV infusion of amyloid β protein fragment (25-35) or saline (sham); test: Amphetamine-induced hyperactivity study with amyloid β protein; assay type: in vivo; details: pimavanserin 0.3 mg/kg, amphetamine 3 mg/kg, FIG. 8
# Description: This study was conducted in acrylic chambers (42 cm×42 cm×30 cm) equipped with 16 infrared photobeams along each horizontal axis (front-to-back and side-to-side, from Accuscan Instruments, Inc. (Columbus, Ohio)). Subjects were mice receiving ICV infusion of amyloid β protein fragment (25-35) or ICV infusion of saline (sham) for 7-10 days.
# An amphetamine-induced hyperactivity study was conducted on the subjects. Subjects were injected with amphetamine (3 mg/kg) or vehicle 15 minutes prior to entering motor activity chambers. Activity was measured as a total distance traveled (DT) in centimeters (cm) and was determined in 20 minute increments across a 60 minute session.
# Activity was measured as a total distance traveled (DT) in centimeters (cm) and was determined in 20 minute increments across a 60 minute session.
# [6] = Half-life upon oral administration to humans; details: human, in vivo
# [7] = cited from earlier work
# [8] = tested on: amphetamine-induced hyperactivity in mice; test: Amphetamine-induced hyperactivity with tacrine or xanomeline; assay type: in vivo; details: amphetamine 3 mg/kg, pimavanserin 0.03 mg/kg where combined
# Description: This study was conducted in acrylic chambers (42 cm×42 cm×30 cm) equipped with 16 infrared photobeams along each horizontal axis (front-to-back and side-to-side, from Accuscan Instruments, Inc., Columbus, Ohio). […] Vehicle or a drug (either tacrine or xanomeline) was injected 30 minutes prior to entering activity chambers. Amphetamine (3 mg/kg) was injected into mice 15 minutes prior to entering motor activity chambers. Mice had no prior exposure to the chambers and each dose combination was tested in separate groups of mice.
# Activity was measured as total distance traveled (DT) in centimeters and was determined across a 15 minute session. Dose response curves were constructed for the drug in the presence of either vehicle or a fixed dose of pimavanserin. In order to generate dose-response curves, raw DT data were converted to percent inhibition, % MPI=((DT drug or drug combination−DT amphetamine control)/(DT vehicle control−DT amphetamine control))*100. A linear regression analysis was then conducted to determine the theoretical dose that would produce a 50% reduction of activity (ED50) and 95% confidence interval.
# C57 BK/6 mice = details: test phase, FIGS. 5 and 6
# Description: Subjects were male, C57 BK/6 mice purchased from Harlan Laboratories, weighing 15-20 g upon arrival. Animals were housed 8 per cage with food and water available ad libitum. Animals were housed on a 12 hr light cycle (lights on 6 am) for 4-7 days prior to behavioral testing.
# Novel object recognition (NOR) was conducted in a novel environment consisting of a white plastic tub measuring 45.7×33.7×19 cm. Prior to each trial the bottom of the tub was covered with a piece of plastic lined bench top paper. There were two sets of identical objects chosen so that when given an opportunity to explore, mice would evenly divide exploration time between the objects. “A” objects were yellow, ceramic, 12-sided ramekins measuring 4 cm high×7 cm diameter. “B” objects were 8×8×4 cm stainless steel, 4-sided ramekins.
# At the beginning of each test day, animals were placed in groups of 6 into clean cages. […]
# During the sample phase, two identical objects (“A” or “B”, objects described above) were placed into the NOR chamber. […] The time spent exploring at each position was recorded. Directly sniffing or touching the object was recorded as exploration. […]
# The test phase was conducted one to two hours after the sample phase. […] The test sessions were recorded on video and scored by an observer blind to each subject's treatment condition. Any time spent directly sniffing or touching an object was counted as exploration. […]
pKi to dopamine receptors including D2 and D4 [1],microsomal CLint [2],functional activity (pEC50 or pKi) [3],half-life [6],SMILES,"amphetamine-induced activity, M1KO subjects ([4]; M1KO mice, amphetamine 3 mg/kg ip, FIG. 9)","amphetamine-induced activity, WT subjects ([4]; WT mice, amphetamine 3 mg/kg ip, FIG. 9)","percent inhibition of amphetamine-induced hyperactivity ([4]; as a function of pimavanserin dosage, FIG. 10)","locomotor activity, pimavanserin alone ([4]; no amphetamine, compared with vehicle controls, pimavanserin 0.03 or 0.3 mg/kg, FIG. 9)","distance traveled following amphetamine, amyloid β mice ([5]; amyloid β mice)","distance traveled following amphetamine, control mice ([5]; sham (control) mice)",patients with elevated liver transaminases [7],"total distance traveled ([8]; 15 minute session, FIGS. 1 and 3)",percent inhibition of amphetamine-induced hyperactivity ([8]; FIGS. 2 and 4),percent of time spent exploring a novel object (C57 BK/6 mice)
< 6,< 10 µL/min/mg,< 6,~55 h,"CC(C)COc1ccc(CNC(=O)N(Cc2ccc(F)cc2)C2CCN(C)CC2)cc1 [Pimavanserin, N-(1-methylpiperidin-4-yl)-N-(4-fluorophenylmethyl)-N′-(4-(2-methylpropyloxy)phenylmethyl)carbamide]",reversed the augmented amphetamine response,did not alter amphetamine-induced activity,increased the inhibition of amphetamine-induced hyperactivity,no significant effect on locomotor activity,reversed the augmented locomotor response to amphetamine,did not reduce the hyperactivity induced by amphetamine,–,–,–,–
–,–,–,–,Nc1c2c(nc3ccccc13)CCCC2 [tacrine],–,–,–,–,–,–,about 30%,total distance traveled decreased,greater inhibition of amphetamine-induced hyperactivity,also increased
